Source: patent US6495604B1, “Cycloalkene derivatives, process for producing the same, and use” (Takeda Chemical Industries, Ltd., priority 1998, dated 2002)

Experiments:
[1] = test system: NO production by RAW264.7 cell; assay: NO production-inhibiting effect in RAW264.7 cells (nitrite ion by DAN fluorescence); assay type: cell-based, mouse; conditions: LPS 5 ng/ml + interferon gamma 1 U/ml, nitrite ion in culture supernatant after overnight incubation
Method: Mouse macrophage cell line RAW264.7 was used as an iNOS-inducible cell and a test compound was examined for its % inhibition of NO production. The test compound was dissolved at 10 mM in N,N-dimethylformamide and diluted with an RPMI-1640 medium at the concentration of 0.1 mM. The concentration was further adjusted using the medium so that a final concentration ranging from 10 μM to 10 nM could be obtained by a 10-fold serial dilution and the test compound was added to a culture medium. On the day before the experiment, the cell was adjusted at 5×10^5/ml in an RPMI-1640 medium supplemented with 10% inactivated fetal calf serum and inoculated to a 96-well microplate at 1×10^5 cells/0.2 ml per well. After incubating at 37° C. under an atmosphere of 5% CO2/95% air overnight, the test compound adjusted as described above was added and then LPS and interferon gamma were added at the final concentrations of 5 ng/ml and 1 U/ml, respectively. After further incubating overnight, culture supernatants were examined for the concentration of nitrite ion (stable metabolite of NO) which was used as an index for the NO production. The nitrite ion concentration was determined by adding 25 μl of 20 μg/ml of 2,3-diaminonaphthalene (DAN) to 50 μl of the culture supernatant, followed by incubating at room temperature for 10 minutes, followed by adding 25 μl of 0.5 N NaOH, followed by determining a fluorescence at 450 nm (excitation wavelength: 365 nm). An IC50 represents the concentration of the test compound which inhibits 50% of the NO production.

[2] = test system: blood nitric oxide concentration (NOx); assay: Effect on increase in blood nitric oxide level (LPS-treated mice); assay type: in vivo, BALB/c mice; conditions: Mus musculus; 30 mg/kg orally 1 hour before LPS 10 mg/kg i.p.; serum nitrite+nitrate 6 hours after LPS; vs control group; read-out: Inhibition % of NO in blood
[3] = test system: IL-1α production, RAW264.7; assay: Cytokine production-inhibiting effect in RAW264.7: IL-1α; assay type: cell-based; conditions: Mus musculus, LPS 1.0 μg/ml in the absence of interferon gamma
Method: Using mouse macrophage cell line RAW264.7, a test compound was examined for its % inhibition of a cytokine production. The test compound was dissolved at 10 mM in N,N-dimethylformamide and dilutedwith an RPMI-1640 medium at the concentration of 0.1 mM. The concentration was further adjusted using the medium so that a final concentration ranging from 10 μM to 10 nM could be obtained by a 10-fold serial dilution and the test compound was added to a culture medium. On the day before the experiment, the cell was adjusted at 5×10^5/ml in an RPMI-1640 medium supplemented with 10% inactivated fetal calf serum and inoculated to a 96-well microplate at 1×10^5 cells/0.2 ml per well. After incubating at 37° C. under an atmosphere of 5% CO2/95% air overnight, the test compound adjusted as described above was added and then LPS and interferon-gamma were added at the final concentrations of 5 ng/ml and 1 U/ml, respectively. After further incubating overnight, culture supernatants were examined for the concentrations of TNF-α and IL-6. IL-1α was determined using 1.0 μg/ml of LPS in the absence of interferon gamma under otherwise similar conditions. Each cytokine was determined using an assay kit manufactured by Amersham. An IC50 represents the concentration of the test compound which inhibits 50% of the cytokine production.

[4] = test system: serum TNF-α; assay: Effect on increase in blood cytokine level (LPS-treated mice): TNF-α; assay type: in vivo, BALB/c mice; conditions: Mus musculus; 30 mg/kg orally 1 hour before LPS 10 mg/kg i.p.; serum 1 hour after LPS; vs control group
Method: (§1) As a result of a defense mechanism against an infection or an immune abnormality, various in vivo cytokines are produced. Accordingly, an experimental animal model was used to examine the effect of a test compound on the increase in the blood cytokine level.
(§2) Female BALB/c mice (6 weeks old) were purchased and acclimatized for 1 week and assigned to the groups in each of which 6 to 8 animals were included. In a treatment group, 30 mg/kg of a test compound suspended in a 0.5% aqueous solution of methyl cellulose was given orally. In a control group, the vehicle was given similarly. After 1 hour, LPS (10 mg/kg) was given intraperitoneally to each animal in the treatment and control groups, and the blood was taken 1 hour after the LPS administration and examined for the serum concentrations of TNF-α. IL-1α, IL-1β and IL-6 concentrations were determined using the serum from the blood taken 6 hours after the LPS administration. Each cytokine was determined using an assay kit manufactured by Amersham.

[5] = test system: serum IL-1α; assay: Effect on increase in blood cytokine level (LPS-treated mice): IL-1α; assay type: in vivo, BALB/c mice; conditions: Mus musculus; 30 mg/kg orally 1 hour before LPS 10 mg/kg i.p.; serum 6 hours after LPS; vs control group
Method: as §1, §2

[6] = test system: serum IL-1β; assay: Effect on increase in blood cytokine level (LPS-treated mice): IL-1β; assay type: in vivo, BALB/c mice; conditions: Mus musculus; 30 mg/kg orally 1 hour before LPS 10 mg/kg i.p.; serum 6 hours after LPS; vs control group
Method: as §1, §2

[7] = test system: serum IL-6; assay: Effect on increase in blood cytokine level (LPS-treated mice): IL-6; assay type: in vivo, BALB/c mice; conditions: Mus musculus; 30 mg/kg orally 1 hour before LPS 10 mg/kg i.p.; serum 6 hours after LPS; vs control group
Method: as §1, §2

[8] = Mus musculus, RAW264.7, RAW264.7

Work on `CCOC(=O)C1=CCCCC1S(=O)(=O)Nc1ccc(F)cc1F` (stereo not drawn) [Compound 3, ethyl 6-[N-(2,4-difluorophenyl)sulfamoyl]-1-cyclohexene-1-carboxylate] yielded an IC50 ([1]; RAW264.7) of 0.013 to 0.039 µM and an inhibition at 30 mg/kg [2] of 90%.

With `CCOC(=O)C1=CCCCC1S(=O)(=O)Nc1ccc(Cl)cc1F` (stereo not drawn) [Compound 1, ethyl 6-[N-(4-chloro-2-fluorophenyl)sulfamoyl]-1-cyclohexene-1-carboxylate] the IC50 [1, 8] was 0.12 to 0.32 µM, the IC50 [3] was 0.39 µM and the inhibition at 30 mg/kg [2] was 76%. For the same compound, the inhibition at 30 mg/kg [4] was 98%, the inhibition at 30 mg/kg [5] was 97% and the inhibition at 30 mg/kg [6] was 73%. The inhibition at 30 mg/kg [7] was 89%.

`CCOC(=O)C1=CCCCC1S(=O)(=O)Nc1ccc(C(=O)NCC(=O)OC(C)(C)C)cc1Cl` (stereo not drawn) [Compound 62, ethyl 6-[N-[2-chloro-4-(N-t-butoxycarbonylmethylcarbamoyl)phenyl]sulfamoyl]-1-cyclohexene-1-carboxylate] showed an IC50 [1, 8] of 3.8 µM.

In the case of `CCOC(=O)C1=CCCCC1S(=O)(=O)Nc1cccc(Cl)c1` (stereo not drawn) [Compound 37, ethyl 6-[N-(3-chlorophenyl)sulfamoyl]-1-cyclohexene-1carboxylate], the IC50 ([1]; Mus musculus, RAW264.7) was 0.13 µM.

Work on “d-ethyl 6-[N-(2,4-difluorophenyl)sulfamoyl]-1-cyclohexene-1-carboxylate [Compound 20]” yielded an IC50 ([1]; RAW264.7) of 0.005 µM.

For `CCOC(=O)C1=CCCC1S(=O)(=O)Nc1ccc(F)cc1F` (stereo not drawn) [Compound 58, ethyl 5-[N-(2,4-difluorophenyl)sulfamoyl]-1-cyclopentene-1-carboxylate], the IC50 [1, 8] was 0.39 µM.

For `CCOC(=O)C1=CCCCC1S(=O)(=O)Nc1ccc(C)cc1Cl` (stereo not drawn) [Compound 45, ethyl 6-[N-(2-chloro-4-methylphenyl)sulfamoyl]-1-cyclohexene-1-carboxylate], the IC50 [1, 8] was 0.027 µM.

With `CCOC(=O)C1=CCCCC1S(=O)(=O)Nc1ccc(Cl)cc1Cl` (stereo not drawn) [Compound 35, ethyl 6-[N-(2,4-dichlorophenyl)sulfamoyl]-1-cyclohexene-1-carboxylate] the IC50 [1, 8] was 0.082 µM.

In the case of `CCOC(=O)C1=CCCCC1S(=O)(=O)Nc1ccccc1` (stereo not drawn) [Compound 6, ethyl 6-(N-phenylsulfamoyl)-1-cyclohexene-1-carboxylate], the IC50 [1, 8] was 0.59 µM.

`CCOC(=O)C1=CCCCC1S(=O)(=O)Nc1cc(F)ccc1F` (stereo not drawn) [Compound 15, ethyl 6-[N-(2,5-difluorophenyl)sulfamoyl]-1-cyclohexene-1-carboxylate] showed an IC50 [1, 8] of 0.28 µM.

`CCOC(=O)C1=CCCCC1S(=O)(=O)Nc1ccccc1C(F)(F)F` (stereo not drawn) [Compound 50, ethyl 6-[N-(2-trifluoromethylphenyl)sulfamoyl]-1-cyclohexene-1-carboxylate] showed an IC50 [1, 8] of 2 µM.

`CCOC(=O)C1=CCCCC1S(=O)(=O)Nc1ccc(F)c(F)c1F` (stereo not drawn) [Compound 31, ethyl 6-[N-(2,3,4-trifluorophenyl)sulfamoyl]-1-cyclohexene-1-carboxylate] was tested, and the IC50 [1, 8] was 0.23 µM.

Work on `CCOC(=O)C1=CCCCC1S(=O)(=O)Nc1ccccc1OC(F)(F)F` (stereo not drawn) [Compound 42, ethyl 6-[N-(2-trifluoromethoxyphenyl)sulfamoyl]-1-cyclohexene-1-carboxylate] yielded an IC50 [1, 8] of 1.1 µM.

With `CCOC(=O)C1=CCCCC1S(=O)(=O)Nc1cccc(Cl)c1Cl` (stereo not drawn) [Compound 38, ethyl 6-[N-(2,3-dichlorophenyl)sulfamoyl]-1-cyclohexene-1-carboxylate] the IC50 [1, 8] was 0.041 µM.

With `CCOC(=O)C1=CCCCC1S(=O)(=O)Nc1ccc(F)cc1C` (stereo not drawn) [Compound 46, ethyl 6-[N-(4-fluoro-2-methylphenyl)sulfamoyl]-1-cyclohexene-1-carboxylate] the IC50 [1, 8] was 0.054 µM.

Work on `CCOC(=O)C1=CCCCC1S(=O)(=O)Nc1ccccc1F` (stereo not drawn) [Compound 10, ethyl 6-[N-(2-fluorophenyl)sulfamoyl]-1-cyclohexene-1-carboxylate] yielded an IC50 [1, 8] of 0.058 µM.

`O=C1C2=C(CCCC2)S(=O)(=O)N1c1ccc(F)cc1` [Compound 68, 2-(4-fluorophenyl)-4,5,6,7-tetrahydro-1,2-benzoisothiazol-3(2H)-one 1,1-dioxide] showed an IC50 [1, 8] of 5.1 µM.

In the case of `CCOC(=O)C1=CCCCC1S(=O)(=O)Nc1ccc(F)cc1Cl` (stereo not drawn) [Compound 29, ethyl 6-[N-(2-chloro-4-fluorophenyl)sulfamoyl]-1-cyclohexene-1-carboxylate], the IC50 [1, 8] was 0.0093 µM.

`CCOC(=O)C1=CCCCCC1S(=O)(=O)Nc1ccc(F)cc1Cl` (stereo not drawn) [Compound 65, ethyl 7-[N-(2-chloro-4-fluorophenyl)sulfamoyl]-1-cycloheptene-1-carboxylate] showed an IC50 [1, 8] of 0.32 µM.

With `CCCOC(=O)C1=CCCCC1S(=O)(=O)Nc1ccc(F)cc1F` (stereo not drawn) [Compound 23, propyl 6-[N-(2,4-difluorophenyl)sulfamoyl]-1-cyclohexene-1-carboxylate] the IC50 [1, 8] was 0.027 µM.

For `CCOC(=O)C1=C(S(=O)(=O)Nc2ccc(Cl)cc2F)CCCC1` [Compound 9, ethyl 2-[N-(4-chloro-2-fluorophenyl)sulfamoyl]-1-cyclohexene-1-carboxylate], the IC50 [1, 8] was 4.1 µM.

With `CCOC(=O)C1=CCCCC1S(=O)(=O)Nc1ccc(F)c(F)c1` (stereo not drawn) [Compound 16, ethyl 6-[N-(3,4-difluorophenyl)sulfamoyl]-1-cyclohexene-1-carboxylate] the IC50 [1, 8] was 0.18 µM.

With `CCOC(=O)C1=CCCCCC1S(=O)(=O)Nc1ccc(F)cc1F` (stereo not drawn) [Compound 61, ethyl 7-[N-(2,4-difluorophenyl)sulfamoyl]-1-cycloheptene-1-carboxylate] the IC50 [1, 8] was 2.8 µM.

In the case of `O=C(O)COC(=O)C1=CCCCC1S(=O)(=O)Nc1ccc(F)cc1F` (stereo not drawn) [Compound 60, [6-[N-(2,4-difluorophenyl)sulfamoyl]-1-cyclohexen-1-yl]carbonyloxyacetic acid], the IC50 [1, 8] was 7.9 µM.

With `CCOC(=O)C1=CCCCC1S(=O)(=O)Nc1ccccc1CC` (stereo not drawn) [Compound 39, ethyl 6-[N-(2-ethylphenyl)sulfamoyl]-1-cyclohexene-1-carboxylate] the IC50 ([1]; Mus musculus, RAW264.7) was 0.32 µM.

`CCOC(=O)C1=CCCCC1S(=O)(=O)Nc1ccc(-n2cncn2)cc1F` (stereo not drawn) [Compound 57, ethyl 6-[N-[2-fluoro-4-(IH-1,2,4-triazol-1-yl)phenyl)sulfamoyl]-1-cyclohexene-1-carboxylate] gave an IC50 ([1]; RAW264.7) of 4.6 µM.

`CCOC(=O)C1=CCCCC1S(=O)(=O)Nc1cc(Cl)ccc1Cl` (stereo not drawn) [Compound 41, ethyl 6-[N-(2,5-dichlorophenyl)sulfamoyl]-1-cyclohexene-1-carboxylate] was tested, and the IC50 [1, 8] was 0.24 µM.

For `CCCCOC(=O)C1=CCCCC1S(=O)(=O)Nc1ccc(F)cc1F` (stereo not drawn) [Compound 33, butyl 6-[N-(2,4-difluorophenyl)sulfamoyl]-1-cyclohexene-1-carboxylate], the IC50 [1, 8] was 0.26 µM.

`CCOC(=O)C1=CCCCC1S(=O)(=O)Nc1ccc(C#N)cc1Cl` (stereo not drawn) [Compound 55, ethyl 6-[N-(2-chloro-4-cyanophenyl)sulfamoyl]-1-cyclohexene-1-carboxylate] showed an IC50 [1, 8] of 3.3 µM.
